This assay deals with fluorescent AGEs. As to the kind of experiment: Quantitative determination of fluorescent AGEs after reaction at 37° C. for 42 days. The note with it: for Fluorescent AGEs: 37° C., 42 days. The assay is classed as biochemical. As for the experimental part: After 0.4 g of a high molecular weight fraction and 8 mL of 6N hydrochloric acid were charged in an ampule and the air in the ampule was replaced with nitrogen, hydrolysis was performed at 110° C. for 16 hours in a heat block. After reaction, 8 mL of 5N sodium hydroxide was added, and pH was adjusted using 1N hydrochloric acid and 1N sodium hydroxide to make pH within a range of 7.2 to 7.6. Then, the solution was filtered through a 0.45 μm filter. Using the thus obtained filtrate as a sample, fluorescent AGEs were quantitatively determined using the following methods. After weighing 2.5 mg of a standard substance perylene, the standard substance perylene was fully dissolved in 10 mL of deaerated ethanol added thereto to prepare a perylene solution. The perylene solution diluted to the concentration of 10 μM was exposed to excitation light with a wavelength of 386 nm and then the area was calculated by measuring a fluorescence intensity ranging from 410 to 600 nm. Meanwhile, the sample was exposed to excitation light with a wavelength of 380 nm and then the area was calculated by measuring a fluorescence intensity ranging from 400 to 600 nm. By considering the area measurement value of the sample as a value relative to the area value of the 10 μM perylene solution, fluorescent AGEs were determined.
Amino acid or biological protein, carbohydrates and a phosphate buffer solution were charged in a 50 mL polypropylene centrifuge tube in each amount shown in Table 8, followed by sealing and stirring, and then the mixture was reacted in an incubator at 37° C. for 42 days. Next, the reactant was fractionated by centrifugation at 3,000 rpm for 3 hours using an ultrafiltration unit (VIVA SPIN 20, manufactured by Sartorius Corporation). The obtained low molecular weight fraction was used as a sample for determination of 3-DG, while the obtained high molecular weight fraction was used as a sample for the determination of fluorescent AGEs. Amino acid, biological protein and carbohydrates used are as follows:
In the same manner as in Test Example 1, except that the low molecular weight fraction prepared as mentioned above was used as a sample, quantitative determination of 3-DG was performed. In the same manner as in Test Example 2, except that the high molecular weight fraction prepared as mentioned above was used as a sample, determination of fluorescent AGEs was performed.
Amino acid, carbohydrates and a phosphate buffer solution were charged in a 50 mL polypropylene centrifuge tube in each amount shown in Table 10, followed by sealing and stirring, and then the mixture was reacted in an incubator at 37° C. for 42 days. Next, the reactant was filtered through a 0.2 μm filter and the obtained filtrate was used as a sample. Amino acid and carbohydrates used are as follows:
After weighing 2.5 mg of a standard substance perylene, the standard substance perylene was fully dissolved in 50 mL of deaerated ethanol added thereto to prepare a perylene solution. The perylene solution diluted to the concentration of 10 μM was exposed to excitation light with a wavelength of 386 nm and then the area was calculated by measuring a fluorescence intensity ranging from 410 to 600 nm. Meanwhile, the sample was exposed to excitation light with a wavelength of 380 nm and then the area was calculated by measuring a fluorescence intensity ranging from 400 to 600 nm. By considering the area measurement value of the sample as a value relative to the area value of the 10 μM perylene solution, fluorescent AGEs were quantitatively determined.
Biological proteins, carbohydrates and a phosphate buffer solution are charged in a 50 mL polypropylene centrifuge tube in each amount shown in Table 12, followed by sealing and stirring, and then the mixture was reacted in an incubator at 37° C. for 42 days. Next, the reactant was fractionated by centrifugation at 3,000 rpm for 3 hours using an ultrafiltration unit (VIVA SPIN 20, manufactured by Sartorius Corporation). […]

The mark [1] stands for this setting: Test Example 3, amino acid (lysine:arginine 1:1) 0.4 g + glucose 1.8 g or maltitol 3.4 g.
The mark [2] stands for this setting: Test Example 3, bovine serum albumin 0.4 g + glucose 1.8 g or maltitol 3.4 g.
Where [3] appears, read: Test Example 4, amino acid 0.4 g + carbohydrate 1.8 g.
Where [4] appears, read: Test Example 5, bovine serum albumin 0.4 g + carbohydrate 1.8 g.
Setting [5] is: Test Example 5, human serum albumin 0.4 g + carbohydrate 1.8 g.
Setting [6] is: Test Example 5, γ-globulin 0.4 g + carbohydrate 1.8 g.
The mark [7] stands for this setting: Test Example 6, collagen 0.015 g + carbohydrate 1.8 g, hydrolysed high molecular weight fraction.

The results in this text go back to US20130287890A1, “INHIBITOR OF THE PRODUCTION OF ADVANCED GLYCATION END PRODUCTS” (UENO FINE CHEMICALS INDUSTRY, LTD., priority 2012, published 2013).

In the case of `O=C[C@H](O)[C@@H](O)[C@H](O)[C@H](O)CO` [Glucose], the “Fluorescent AGEs” value reads like this: under setting [1], 91 nmol/1 g of protein; under setting [2], 46 nmol/1 g of protein; under setting [3], 17.4 nmol/1 mL of reaction solution; under setting [4], 11 nmol/1 mL of reaction solution; under setting [5], 8.6 nmol/1 mL of reaction solution; under setting [6], 3.0 nmol/1 mL of reaction solution. In addition, under setting [7], the “Fluorescent AGEs” value is on record as 1.4 nmol/1 mL of reaction solution.
With `O=C(CO)[C@@H](O)[C@H](O)[C@H](O)CO` [Fructose], the “Fluorescent AGEs” value is reported as 11.4 nmol/1 mL of reaction solution under setting [3]; 28 nmol/1 mL of reaction solution under setting [4]; 25.2 nmol/1 mL of reaction solution under setting [5]; 17.3 nmol/1 mL of reaction solution under setting [6]; 2.4 nmol/1 mL of reaction solution under setting [7].
With `OC[C@@H](O)[C@@H](O)[C@H](O)[C@@H](O)CO` [Sorbitol], the “Fluorescent AGEs” value by setting is: under setting [3], 0.4 nmol/1 mL of reaction solution; under setting [4], 2.0 nmol/1 mL of reaction solution; under setting [5], 5.4 nmol/1 mL of reaction solution; under setting [6], 1.3 nmol/1 mL of reaction solution; under setting [7], 0.5 nmol/1 mL of reaction solution. Further, the “production of fluorescent AGEs” value is, setting by setting: (Test Example 4, amino acid, compared with sections containing glucose and fructose) “decreased”; (Test Example 5, bovine serum albumin, human serum albumin, γ-globulin, compared with sections containing fructose) “decreased”; (Test Example 5, bovine serum albumin, human serum albumin, γ-globulin, compared with sections containing glucose) “decreased”; (Test Example 6, collagen, compared with sections containing glucose and fructose) “decreased”.
`OC[C@@H](O)[C@@H](O[C@H]1O[C@H](CO)[C@@H](O)[C@H](O)[C@H]1O)[C@H](O)[C@@H](O)CO` [Maltitol]: the “Fluorescent AGEs” value is given as 2 nmol/1 g of protein under setting [1] and 7 nmol/1 g of protein under setting [2]. Moreover, the “production of AGEs” value (Test Example 3, amino acids and bovine serum albumin, compared with sections containing glucose) is reported as “decreased”.
